According to patent US10765114B2, “4-amino-6-(pyridyl and 2-substitutedphenyl)-picolinates and 6-amino-2-(pyridyl and 2-substitutedphenyl)-pyrimidine-4-carboxylates and their use as herbicides” (Dow AgroSciences LLC, priority 2013, dated 2020):
Where two headings read alike, the source gives them in different places.

How the values were obtained:
[1] = test system: Key Broadleaf Weed and Crop Species; assay: Post-Emergent Test II (Table 5); assay type: in vivo; conditions: post-emergence, 336 h; for pest or weed control at 70 g/ha: application rate 70 (kg ai/ha; footnote: g ai/ha); for pest or weed control at 140 g/ha: application rate 140 (kg ai/ha; footnote: g ai/ha)
Outline: (§1)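 Seedlings are raised 7-21 days in Metro-Mix 360 (pH 6.0-6.8) under greenhouse conditions, then sprayed at the first or second true leaf stage. Application is 187 L/ha, with serial rates down to 1/16× of the highest. Plants are subirrigated, and percent injury is rated visually after 14 days.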

[2] = test system: Key Grass and Sedge Weeds as well as Grass Crops; assay: Post-Emergent Test II (Table 6); assay type: in vivo; conditions: post-emergence, 336 h, 14 days after application; for pest or weed control at 70 g/ha: 70 g ai/ha; for pest or weed control at 140 g/ha: 140 g ai/ha
Outline: as §1

[3] = Abutilon theophrasti, ABUTH: velvetleaf (Abutilon theophrasti), read-out: Visual Growth Reduction (%) 14 Days After Application ABUTH
[4] = Amaranthus retroflexus, AMARE: redroot pigweed (Amaranthus retroflexus), read-out: Visual Growth Reduction (%) 14 Days After Application AMARE
[5] = Brassica napus, BRSSS: oilseed rape, canola (Brassica napus), read-out: Visual Growth Reduction (%) 14 Days After Application BRSSS
[6] = Chenopodium album, CHEAL: lambsquarters (Chenopodium album), read-out: Visual Growth Reduction (%) 14 Days After Application CHEAL
[7] = Euphorbia heterophylla, EPHHL: wild poinsettia (Euphorbia heterophylla), read-out: Visual Growth Reduction (%) 14 Days After Application EPHHL
[8] = Helianthus annuus, HELAN: sunflower (Helianthus annuus), read-out: Visual Growth Reduction (%) 14 Days After Application HELAN
[9] = Viola tricolor, VIOTR: wild pansy (Viola tricolor), read-out: Visual Growth Reduction (%) 14 Days After Application VIOTR
[10] = CYPSS, read-out: Visual Growth Reduction (%) 14 Days After Application CYPSS
[11] = DIGSA: crabgrass (Digitaria sanguinalis), read-out: Visual Growth Reduction (%) 14 Days After Application DIGSA
[12] = ECHSS, read-out: Visual Growth Reduction (%) 14 Days After Application ECHSS
[13] = ORYSS (crop), read-out: Visual Growth Reduction (%) 14 Days After Application ORYSS
[14] = SETFA: giant foxtail (Setaria faberi), read-out: Visual Growth Reduction (%) 14 Days After Application SETFA
[15] = SORVU: grain sorghum (Sorghum vulgare), read-out: Visual Growth Reduction (%) 14 Days After Application SORVU
[16] = TRZSS (crop), read-out: Visual Growth Reduction (%) 14 Days After Application TRZSS
[17] = ZEAMX: maize, corn (Zea mays), read-out: Visual Growth Reduction (%) 14 Days After Application ZEAMX

Compound	pest or weed control at 70 g/ha [1, 3] [%]	pest or weed control at 140 g/ha [1, 3] [%]	pest or weed control at 70 g/ha [1, 4] [%]	pest or weed control at 140 g/ha [1, 4] [%]	pest or weed control at 70 g/ha [1, 5] [%]	pest or weed control at 140 g/ha [1, 5] [%]	pest or weed control at 70 g/ha [1, 6] [%]	pest or weed control at 140 g/ha [1, 6] [%]	pest or weed control at 70 g/ha [1, 7] [%]	pest or weed control at 140 g/ha [1, 7] [%]	pest or weed control at 70 g/ha [1, 8] [%]	pest or weed control at 140 g/ha [1, 8] [%]	pest or weed control at 70 g/ha [1, 9] [%]	pest or weed control at 140 g/ha [1, 9] [%]	pest or weed control at 70 g/ha [2, 10] [%]	pest or weed control at 140 g/ha [2, 10] [%]	pest or weed control at 70 g/ha [2, 11] [%]	pest or weed control at 140 g/ha [2, 11] [%]	pest or weed control at 70 g/ha [2, 12] [%]	pest or weed control at 140 g/ha [2, 12] [%]	other results
COc1c(N)nc(-c2ccc(C(F)(F)F)nc2)nc1C(=O)O [Compound 5, 6-amino-5-methoxy-2-(6-(trifluoromethyl)pyridin-3-yl)pyrimidine-4-carboxylic acid]	0 to 29	0 to 29	75 to 84	85 to 94	85 to 94	85 to 94	0 to 29	45 to 59	85 to 94	95 to 100	60 to 74	75 to 84	0 to 29	30 to 44	0 to 29	0 to 29	60 to 74	75 to 84	85 to 94	85 to 94	pest or weed control at 70 g/ha [2, 13]: 0 to 29%; pest or weed control at 140 g/ha [2, 13]: 0 to 29%; pest or weed control at 70 g/ha [2, 14]: 0 to 29%; pest or weed control at 140 g/ha [2, 14]: 30 to 44%; pest or weed control at 70 g/ha [2, 15]: 0 to 29%; pest or weed control at 140 g/ha [2, 15]: 0 to 29%; pest or weed control at 70 g/ha [2, 16]: 0 to 29%; pest or weed control at 140 g/ha [2, 16]: 30 to 44%; pest or weed control at 70 g/ha [2, 17]: 0 to 29%; pest or weed control at 140 g/ha [2, 17]: 0 to 29%; melting point: 188 °C
COC(=O)c1nc(-c2ccc(C(F)(F)F)nc2)c(F)c(N)c1Cl [Compound 59, methyl 4-amino-5-chloro-3-fluoro-6′-(trifluoromethyl)-[2,3′-bipyridine]-6-carboxylate]	85 to 94	95 to 100	85 to 94	95 to 100	60 to 74	60 to 74	95 to 100	95 to 100	95 to 100	95 to 100	95 to 100	95 to 100	60 to 74	75 to 84	95 to 100	95 to 100	75 to 84	85 to 94	85 to 94	85 to 94	pest or weed control at 70 g/ha [2, 13]: 0 to 29%; pest or weed control at 140 g/ha [2, 13]: 0 to 29%; pest or weed control at 70 g/ha [2, 14]: 60 to 74%; pest or weed control at 140 g/ha [2, 14]: 75 to 84%; pest or weed control at 70 g/ha [2, 15]: 75 to 84%; pest or weed control at 140 g/ha [2, 15]: 85 to 94%; pest or weed control at 70 g/ha [2, 16]: 45 to 59%; pest or weed control at 140 g/ha [2, 16]: 45 to 59%; pest or weed control at 70 g/ha [2, 17]: 75 to 84%; pest or weed control at 140 g/ha [2, 17]: 75 to 84%; melting point: 137 °C
COC(=O)c1nc(-c2ccc(C(F)(F)F)nc2)c(Cl)c(N)c1Cl [Compound 83]	60 to 74	60 to 74	0 to 29	0 to 29	45 to 59	45 to 59	60 to 74	75 to 84	0 to 29	30 to 44	85 to 94	85 to 94	0 to 29	0 to 29	30 to 44	45 to 59	60 to 74	75 to 84	60 to 74	75 to 84	pest or weed control at 70 g/ha [2, 13]: 0 to 29%; pest or weed control at 140 g/ha [2, 13]: 0 to 29%; pest or weed control at 70 g/ha [2, 14]: 75 to 84%; pest or weed control at 140 g/ha [2, 14]: 75 to 84%; pest or weed control at 70 g/ha [2, 15]: 75 to 84%; pest or weed control at 140 g/ha [2, 15]: 75 to 84%; pest or weed control at 70 g/ha [2, 16]: 45 to 59%; pest or weed control at 140 g/ha [2, 16]: 60 to 74%; pest or weed control at 70 g/ha [2, 17]: 75 to 84%; pest or weed control at 140 g/ha [2, 17]: 75 to 84%; melting point: 148 to 150 °C
COC(=O)c1nc(-c2ccc(OC)nc2)c(F)c(N)c1Cl [Compound 62]	95 to 100	95 to 100	95 to 100	95 to 100	60 to 74	60 to 74	95 to 100	95 to 100	95 to 100	95 to 100	95 to 100	95 to 100	0 to 29	0 to 29	0 to 29	30 to 44	75 to 84	60 to 74	95 to 100	95 to 100	pest or weed control at 70 g/ha [2, 13]: 0 to 29%; pest or weed control at 140 g/ha [2, 13]: 0 to 29%; pest or weed control at 70 g/ha [2, 14]: 60 to 74%; pest or weed control at 140 g/ha [2, 14]: 85 to 94%; pest or weed control at 70 g/ha [2, 15]: 60 to 74%; pest or weed control at 140 g/ha [2, 15]: 75 to 84%; pest or weed control at 70 g/ha [2, 16]: 45 to 59%; pest or weed control at 140 g/ha [2, 16]: 45 to 59%; pest or weed control at 70 g/ha [2, 17]: 95 to 100%; pest or weed control at 140 g/ha [2, 17]: 95 to 100%; melting point: 168 to 169 °C
